Reference: paper PMC4310350 (Drug Design, Development and Therapy, 2015)
Where two headings read alike, the source gives them in different places.

Key:
[1] = rat liver microsomes in the presence of NADPH; cited from earlier work
[2] = tested on: suppression of cytokines, antioxidative effect, and PPAR-α activation; conditions: in vitro cell system; cited from earlier work
[3] = tested on: colitis induced by trinitrobenzene sulfonic acid; conditions: mice, cited from earlier work
[4] = target: T1, OATP1B1 (Homo sapiens, UniProt Q9Y6L6); experiment: Uptake in HEK293 cells overexpressing OATP1B1; type: in vitro ADME; conditions: OATP1B1-mediated uptake
T1 sequence (Q9Y6L6 1-691): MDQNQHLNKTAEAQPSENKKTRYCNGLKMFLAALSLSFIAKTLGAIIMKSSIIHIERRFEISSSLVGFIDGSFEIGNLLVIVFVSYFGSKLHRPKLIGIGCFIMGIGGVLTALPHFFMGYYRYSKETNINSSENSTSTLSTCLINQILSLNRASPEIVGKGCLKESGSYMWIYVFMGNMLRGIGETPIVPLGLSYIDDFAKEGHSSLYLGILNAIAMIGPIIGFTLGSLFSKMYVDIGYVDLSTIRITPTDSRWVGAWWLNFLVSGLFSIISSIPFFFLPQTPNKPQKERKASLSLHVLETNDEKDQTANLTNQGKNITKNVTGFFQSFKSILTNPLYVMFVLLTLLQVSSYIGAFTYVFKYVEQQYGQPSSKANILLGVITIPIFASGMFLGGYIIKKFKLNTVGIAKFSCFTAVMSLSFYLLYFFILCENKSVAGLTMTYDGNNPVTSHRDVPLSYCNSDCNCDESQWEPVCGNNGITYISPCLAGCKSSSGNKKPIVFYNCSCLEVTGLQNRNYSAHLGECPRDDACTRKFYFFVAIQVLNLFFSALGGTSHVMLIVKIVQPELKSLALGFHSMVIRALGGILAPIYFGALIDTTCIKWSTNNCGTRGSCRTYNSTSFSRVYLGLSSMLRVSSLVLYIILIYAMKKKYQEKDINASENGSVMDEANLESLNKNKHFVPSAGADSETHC

[5] = Pharmacokinetics in rats after intravenous administration; type: in vivo; conditions: from the cited clearance values
[6] = target: T2, OCT1 (Homo sapiens, UniProt O15245); experiment: Inhibitory effect of catalposide on OCT1 transport activity; type: in vitro ADME; conditions: probe 0.1 μM [3H]MPP+, catalposide 0–100 μM
T2 sequence (O15245 1-554): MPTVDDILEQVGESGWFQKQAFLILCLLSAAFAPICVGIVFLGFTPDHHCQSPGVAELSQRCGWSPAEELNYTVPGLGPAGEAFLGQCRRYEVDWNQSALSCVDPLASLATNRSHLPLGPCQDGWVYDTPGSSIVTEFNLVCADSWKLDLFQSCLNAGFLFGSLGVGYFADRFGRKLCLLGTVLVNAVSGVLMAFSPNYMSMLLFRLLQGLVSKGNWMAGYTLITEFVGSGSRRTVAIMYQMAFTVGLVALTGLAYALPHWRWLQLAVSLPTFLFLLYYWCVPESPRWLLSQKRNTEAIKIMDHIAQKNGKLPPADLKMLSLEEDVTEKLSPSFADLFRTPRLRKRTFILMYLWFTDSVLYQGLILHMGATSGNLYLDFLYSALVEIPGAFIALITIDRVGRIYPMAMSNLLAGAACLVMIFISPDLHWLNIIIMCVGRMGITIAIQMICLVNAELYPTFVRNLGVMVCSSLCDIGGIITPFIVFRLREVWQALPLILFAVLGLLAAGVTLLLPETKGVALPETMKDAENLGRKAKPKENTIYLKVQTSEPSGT

[7] = target: P-gp (Homo sapiens, UniProt P08183); experiment: Inhibitory effect of catalposide on P-gp transport activity; type: in vitro ADME; conditions: probe 0.1 μM [3H]digoxin, catalposide 1–100 μM
P-gp, sequence (P08183 whole entry): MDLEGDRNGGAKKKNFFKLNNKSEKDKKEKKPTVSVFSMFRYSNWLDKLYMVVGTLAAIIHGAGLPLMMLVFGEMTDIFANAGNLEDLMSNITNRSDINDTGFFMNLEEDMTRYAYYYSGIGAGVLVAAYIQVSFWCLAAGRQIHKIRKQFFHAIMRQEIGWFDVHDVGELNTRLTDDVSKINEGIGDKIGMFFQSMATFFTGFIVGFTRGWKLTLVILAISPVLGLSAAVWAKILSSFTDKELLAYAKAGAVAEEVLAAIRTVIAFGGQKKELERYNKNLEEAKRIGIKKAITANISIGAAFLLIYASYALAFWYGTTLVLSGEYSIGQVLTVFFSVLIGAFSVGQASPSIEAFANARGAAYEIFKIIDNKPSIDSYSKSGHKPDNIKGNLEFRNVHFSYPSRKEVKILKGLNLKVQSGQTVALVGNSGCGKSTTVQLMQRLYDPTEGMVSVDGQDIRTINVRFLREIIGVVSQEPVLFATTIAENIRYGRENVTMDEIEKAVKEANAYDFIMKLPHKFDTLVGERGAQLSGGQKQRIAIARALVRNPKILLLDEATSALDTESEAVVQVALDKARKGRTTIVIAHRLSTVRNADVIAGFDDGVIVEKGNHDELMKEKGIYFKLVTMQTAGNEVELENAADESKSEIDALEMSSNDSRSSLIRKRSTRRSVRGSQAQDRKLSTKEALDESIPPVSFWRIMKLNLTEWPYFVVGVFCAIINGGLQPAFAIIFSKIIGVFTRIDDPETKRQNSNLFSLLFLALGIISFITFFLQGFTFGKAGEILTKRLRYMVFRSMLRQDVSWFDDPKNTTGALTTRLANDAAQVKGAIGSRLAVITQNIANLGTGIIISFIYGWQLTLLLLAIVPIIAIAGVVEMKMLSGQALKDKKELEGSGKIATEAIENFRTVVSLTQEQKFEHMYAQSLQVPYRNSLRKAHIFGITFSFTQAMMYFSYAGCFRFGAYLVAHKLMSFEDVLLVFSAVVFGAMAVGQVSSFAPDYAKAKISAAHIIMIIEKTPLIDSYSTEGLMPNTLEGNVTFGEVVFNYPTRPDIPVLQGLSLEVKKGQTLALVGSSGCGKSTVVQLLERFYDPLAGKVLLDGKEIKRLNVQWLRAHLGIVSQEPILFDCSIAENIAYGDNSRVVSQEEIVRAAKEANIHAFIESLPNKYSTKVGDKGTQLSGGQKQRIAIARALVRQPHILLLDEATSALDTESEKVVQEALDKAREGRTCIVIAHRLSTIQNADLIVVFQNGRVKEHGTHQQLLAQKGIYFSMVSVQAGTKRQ

[8] = human liver microsomes in the presence of NADPH; cited from earlier work
[9] = target: T3, OAT1 (Homo sapiens, UniProt Q4U2R8); experiment: Inhibitory effect of catalposide on OAT1 transport activity; type: in vitro ADME; conditions: probe 1 μM PAH, catalposide 0–100 μM
T3 sequence (Q4U2R8 1-563): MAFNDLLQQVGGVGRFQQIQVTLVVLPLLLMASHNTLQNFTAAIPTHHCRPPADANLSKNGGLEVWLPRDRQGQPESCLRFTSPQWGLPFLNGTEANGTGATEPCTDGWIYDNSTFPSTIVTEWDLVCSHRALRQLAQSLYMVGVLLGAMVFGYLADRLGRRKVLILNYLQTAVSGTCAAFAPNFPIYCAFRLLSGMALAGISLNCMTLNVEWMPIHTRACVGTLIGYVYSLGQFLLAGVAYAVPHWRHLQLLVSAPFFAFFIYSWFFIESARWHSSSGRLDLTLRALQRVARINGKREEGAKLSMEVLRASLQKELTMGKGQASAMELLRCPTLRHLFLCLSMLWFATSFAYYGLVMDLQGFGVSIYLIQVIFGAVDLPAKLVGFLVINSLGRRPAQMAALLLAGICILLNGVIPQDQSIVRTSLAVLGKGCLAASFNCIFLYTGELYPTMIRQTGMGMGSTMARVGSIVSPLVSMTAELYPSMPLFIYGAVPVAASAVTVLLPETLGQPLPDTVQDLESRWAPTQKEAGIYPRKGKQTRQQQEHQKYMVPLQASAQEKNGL

[10] = target: T3, OAT1; experiment: Uptake in HEK293 cells overexpressing OAT1; type: in vitro ADME; conditions: OAT1, influx

Structure (SMILES): O=C(O[C@H]1[C@@H]2C=CO[C@@H](O[C@@H]3O[C@H](CO)[C@@H](O)[C@H](O)[C@H]3O)[C@@H]2[C@@]2(CO)O[C@@H]12)c1ccc(O)cc1 [catalposide]
- Stability [1]: remained stable
- Effective concentration [2]: 0.2 to 4 µM
- Histologic toxicity ([3]; 1–2.5 mg/kg): without histologic toxicity
- Severity of colitis ([3]; dose 0.5 mg/kg): reduced the severity of colitis
- Hill coefficient n [4]: ~1
- Share cleared by nonrenal clearance [5]: approximately 90%
- Inhibitor [6]: did not significantly inhibit
- Inhibitor [7]: did not significantly inhibit
- Stability [8]: remained stable
- Inhibitor [9]: did not significantly inhibit
- Substrate [10]: not involved
